# Test results as given in patent publication US20120065196A1, “AMIDE COMPOUNDS” (priority 2006, published 2012).
# Target: T1, human DGAT1 (Homo sapiens, UniProt O75907)
# T1 construct: (N); made in house; host or cells: Sf9 insect cells infected with recombinant baculovirus BAC-DGAT1; microsome fraction
# T1 sequence (O75907 1-488): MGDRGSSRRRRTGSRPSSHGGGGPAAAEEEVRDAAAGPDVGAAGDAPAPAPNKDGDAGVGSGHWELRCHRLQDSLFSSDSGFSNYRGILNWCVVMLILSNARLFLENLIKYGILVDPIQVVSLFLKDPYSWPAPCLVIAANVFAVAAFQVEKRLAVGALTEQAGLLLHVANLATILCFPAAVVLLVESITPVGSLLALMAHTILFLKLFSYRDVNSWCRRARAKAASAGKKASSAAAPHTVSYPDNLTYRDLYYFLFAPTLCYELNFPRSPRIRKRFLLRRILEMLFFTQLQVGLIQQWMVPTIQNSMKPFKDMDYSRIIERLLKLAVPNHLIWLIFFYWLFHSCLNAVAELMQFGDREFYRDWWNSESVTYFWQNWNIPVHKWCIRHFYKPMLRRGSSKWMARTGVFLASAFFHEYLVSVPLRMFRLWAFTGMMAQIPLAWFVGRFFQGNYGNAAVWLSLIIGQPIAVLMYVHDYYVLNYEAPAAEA
# Assay: Determination of DGAT inhibitory activity (triglyceride synthesis with DGAT1 high expression Sf9 microsome)
# Type: biochemical
# Conditions: 25 μM dioleoylglycerol, 25 μM [14C]-Oleoyl-CoA, 32° C., 20 min, read-out: hDGAT1 IC50
# Protocol: Human DGAT1 gene was cloned by PCR using human adipocyte cDNA (Clontech, QUICK-Clone cDNA, human fat cell, cat #637220) as a template and, based on the DGAT1 gene information reported by Case, S. et al. (Proc. Natl. Acad. Sci. U.S.A. 95 (22), 13018-13023 (1998)), a nucleotide sequence (245-1711 of Genbank Accession No. NM_012079) encoding DGAT1 was amplified with the following PCR primer. The primer nucleotide sequence is shown below.
# The PCR reaction was conducted using a KOD-plus kit (TOYOBO). The obtained PCR product was electrophoresed on agarose gel (1%), the DNA fragment amplified by PCR was recovered from the gel, and then digested with restriction enzymes EcoRI and SpeI. The DNA treated with the restriction enzymes was electrophoresed on agarose gel (1%), and the obtained DNA fragment was recovered and ligated with plasmid pFASTBAC1 (Invitrogen) digested with restriction enzymes EcoRI and SpeI to give expression plasmid pFB-DGAT1. The nucleotide sequence of the inserted fragment was confirmed and found to be identical with the nucleotide sequence of DGAT1 (245-1711 of Genbank Accession No. NM_012079). Furthermore, using BAC-TO-BAC Baculovirus Expression System (Invitrogen), recombinant baculovirus BAC-DGAT1 was prepared.
# SF9 cells were sown at 1×10^6 cells/ml on Sf-900II SFM medium (1 L, Invitrogen) containing 10% fetal calf serum (Trace), 50 mg/L gentamicin (Invitrogen) and 0.1% Pluronic F-68 (Invitrogen), and shaking culture was performed using a 2 L volume Erlenmeyer flask at 27° C., 100 rpm. After culturing for 24 hrs, recombinant baculovirus BAC-DGAT1 (6.7 mL) was added, and the mixture was further cultured for 3 days. The culture medium was centrifuged at 2,000 rpm for 5 min to give virus-infected cells. The infected cells were washed with a phosphate buffered saline (Invitrogen), centrifuged under the same conditions, and the cells were preserved at −80° C. The cryopreserved cells were thawed in ice, suspended in buffer A (50 mM Tris buffer (30 mL, pH 7.4) containing 20% glycerol, 0.15 M NaCl) supplemented with Complete Protease Inhibitor (Boehringer), and ruptured 3 times with a Polytron homogenizer (Kinematica) at 20,000 rpm for 30 sec. The Sf9 microsome fractions were obtained by a conventional method and cryopreserved at −80° C. as a DGAT1 high expression Sf9 microsome.
# As a DGAT1 reaction buffer, a solution having a composition of 100 mM Tris-HCl (pH 7.5), 250 mM sucrose, 150 mM MgCl2, 0.01% bovine serum albumin (BSA) was used. Using this buffer, a given concentration of the test compound and a composition (100 μl) of 25 μM dioleoylglycerol, 25 μM [^14C]-Oleoyl-CoA, 5 μg protein/ml DGAT1 high expression Sf9 microsome, and 1% acetone were subjected to a triglyceride synthesis reaction at 32° C. for 20 min. A mixture of 300 μL of chloroform:methanol (=1:2) was added to the reaction mixture to quench the reaction. The reaction mixture was sufficiently mixed and distilled water (200 μL) was added to partition the mixture between a chloroform layer (lower layer) and an aqueous layer (upper layer). The chloroform layer (50 μL) was spotted on a thin layer chromatography silica gel plate (TLC plate, Merck) and developed with a solvent (n-hexane:diethyl ether:ethyl acetate:acetic acid=255:30:15:0.6). The developed TLC plate was dried, contacted with a BAS imaging plate (manufactured by FUJIFILM) and measured with BAS2500 (manufactured by FUJIFILM) 16 hr later to numerically show the amount of [^14C]-triglyceride (TG amount) produced during the reaction. The inhibitory rate was calculated by the following formula:
# Inhibitory rate (%)=(1−(TG amount with addition of test compound−blank TG amount)/(control TG amount−blank TG amount))×100 […]
row,Compound,IC50 [nM]
1,"O=C(NCCNC(=O)C1CCc2c(cnn2-c2ccccc2)C1)c1cn(-c2ccccc2)nc1C(F)(F)F (stereo not shown) [Example E179, 1-phenyl-N-(2-(1-phenyl-3-(trifluoromethyl)-1H-pyrazole-4-carboxamido)ethyl)-4,5,6,7-tetrahydro-1H-indazole-5-carboxamide]",10 to 100
2,"O=C(NCCNC(=O)N1CCC(C(=O)c2ccccc2)C1)c1cn(-c2ccccc2)nc1C(F)(F)F (stereo not shown) [Example E189, N-(2-(3-benzoylpyrrolidine-1-carboxamido)ethyl)-1-phenyl-3-(trifluoromethyl)-1H-pyrazole-4-carboxamide]",10 to 100
3,"CC(C)C1CN(C(=O)NCCNC(=O)c2cn(-c3ccccc3)nc2C(F)(F)F)CC1C(=O)c1ccccc1 (stereo not shown) [Example E193, N-(2-(3-benzoyl-4-isopropylpyrrolidine-1-carboxamido)ethyl)-1-phenyl-3-(trifluouromethyl)-1H-pyrazole-4-carboxamide]",1000 to 10000
4,"O=C(NCCNC(=O)[C@H]1CC[C@H](c2n[nH]c(=O)o2)CC1)c1cn(-c2ccccc2)nc1C(F)(F)F [Example E197, N-(2-(trans-4-(5-oxo-4,5-dihydro-1,3,4-oxadiazol-2-yl)cyclohexanecarboxamido)ethyl)-1-phenyl-3-(trifluoromethyl)-1H-pyrazole-4-carboxamide]",10 to 100
5,"Cn1cnc(-c2ccccc2)c1C1CCN(C(=O)NCCNC(=O)c2cn(-c3ccccc3)nc2C(F)(F)F)CC1 [Example E207, 4-(1-methyl-4-phenyl-1H-imidazol-5-yl)-N-(2-(1-phenyl-3-(trifluoromethyl)-1H-pyrazole-4-carboxamido)ethyl)piperidine-1-carboxamide]",100 to 1000
6,"CC(C)(C)c1cnc([C@H]2CC[C@H](C(=O)NCCNC(=O)c3cn(-c4ccccc4)nc3C(F)(F)F)CC2)o1 [Example E214, N-(2-(trans-4-(5-tert-butyloxazol-2-yl)cyclohexanecarboxamido)ethyl)-1-phenyl-3-(trifluoromethyl)-1H-pyrazole-4-carboxamide]",10 to 100
7,"O=C(NCCNC(=O)C1CCc2nc(-c3ccccc3O)sc2C1)c1cn(-c2ccccc2)nc1C(F)(F)F (stereo not shown) [Example E221, 2-(2-hydroxyphenyl)-N-(2-(1-phenyl-3-(trifluoromethyl)-1H-pyrazole-4-carboxamido)ethyl)-4,5,6,7-tetrahydrobenzo[d]thiazole-6-carboxamide]",10 to 100

# More lines, now with the values ahead:
row,IC50 [nM],Compound
1,100 to 1000,"CC(C)c1nc(C2CCN(C(=O)NCCNC(=O)c3cn(-c4ccccc4)nc3C(F)(F)F)CC2)no1 [Example E225, 4-(5-isopropyl-1,2,4-oxadiazol-3-yl)-N-(2-(1-phenyl-3-(trifluoromethyl)-1H-pyrazole-4-carboxamido)ethyl)piperidine-1-carboxamide]"
2,10 to 100,"CC(C)c1nc([C@H]2CC[C@H](C(=O)NCCNC(=O)c3cn(-c4ccccc4)nc3C(F)(F)F)CC2)no1 [Example E228, N-(2-(trans-4-(5-isopropyl-1,2,4-oxadiazol-3-yl)cyclohexanecarboxamido)ethyl)-1-phenyl-3-(trifluoromethyl)-1H-pyrazole-4-carboxamide]"
3,100 to 1000,"O=C(NCCNC(=O)[C@H]1CC[C@H](c2nnc(-c3ccccc3)[nH]2)CC1)c1cn(-c2ccccc2)nc1C(F)(F)F [Example E229, 1-Phenyl-N-(2-(trans-4-(5-phenyl-4H-1,2,4-triazol-3-yl)cyclohexanecarboxamido)ethyl)-3-(trifluoromethyl)-1H-pyrazole-4-carboxamide]"
4,100 to 1000,"CC(C)c1nnc([C@H]2CC[C@H](C(=O)NCCNC(=O)c3cn(-c4ccccc4Cl)nc3C(F)(F)F)CC2)o1 [Example E234, 1-(2-chlorophenyl)-N-(2-(trans-4-(5-isopropyl-1,3,4-oxadiazol-2-yl)cyclohexanecarboxamido)ethyl)-3-(trifluoromethyl)-1H-pyrazole-4-carboxamide]"
5,10 to 100,"CC(C)c1nc2c(s1)CC(C(=O)NCCNC(=O)c1cn(-c3ccccc3)nc1C(F)(F)F)CC2 (stereo not shown) [Example E242, 2-isopropyl-N-(2-(1-phenyl-3-(trifluoromethyl)-1H-pyrazole-4-carboxamido)ethyl)-4,5,6,7-tetrahydrobenzo[d]thiazole-6-carboxamide]"
6,10 to 100,"CC(C)c1nc([C@H]2CC[C@H](C(=O)NCCNC(=O)c3cn(-c4ccccc4Cl)nc3C(F)(F)F)CC2)no1 [Example E257, 1-(2-chlorophenyl)-N-(2-(trans-4-(5-isopropyl-1,2,4-oxadiazol-3-yl)cyclohexanecarboxamido)ethyl)-3-(trifluoromethyl)-1H-pyrazole-4-carboxamide]"
7,10 to 100,"CC(C)c1nc([C@H]2CC[C@H](C(=O)NCCNC(=O)c3cn(-c4ccccc4F)nc3C(F)(F)F)CC2)no1 [Example E260, 1-(2-fluorophenyl)-N-(2-(trans-4-(5-isopropyl-1,2,4-oxadiazol-3-yl)cyclohexanecarboxamido)ethyl)-3-(trifluoromethyl)-1H-pyrazole-4-carboxamide]"
8,10 to 100,"CC(C)c1nnc([C@H]2CC[C@H](C(=O)NCCNC(=O)c3cn(-c4ccccc4F)c4ccccc34)CC2)o1 [Example E265, 1-(2-fluorophenyl)-N-(2-(trans-4-(5-isopropyl-1,3,4-oxadiazol-2-yl)cyclohexanecarboxamido)ethyl)-1H-indole-3-carboxamide]"
9,1000 to 10000,"CN(CCc1ccncc1)C(=O)NCCNC(=O)c1cn(-c2ccccc2)nc1C(F)(F)F [Example F1, N-(2-(3-Methyl-3-(2-(pyridin-4-yl)ethyl)ureido)ethyl)-1-phenyl-3-(trifluoromethyl)-1H-pyrazole-4-carboxamide]"
